Earlier results, collected in US20090305955A1, “Cyclopeptide with Anti-Cancer Activity Derived from Collagen Type IV” (priority 2006, published 2009).

Columns and labels:
[1] = test system: various cancer cell lines; conditions: Han J et al; Shahan S et al; cited from earlier work
[2] = test system: melanoma or fibrosarcoma cells; conditions: Pasco S et al, 2000a; cited from earlier work
[3] = target: T1, αVβ3 integrin-CD47 protein complex (Homo sapiens, UniProt P05106); conditions: Shahan T A et al; cited from earlier work
T1 construct: αVβ3 integrin-CD47 protein complex present on the surface of melanoma cells
T1 sequence (P05106 27-788): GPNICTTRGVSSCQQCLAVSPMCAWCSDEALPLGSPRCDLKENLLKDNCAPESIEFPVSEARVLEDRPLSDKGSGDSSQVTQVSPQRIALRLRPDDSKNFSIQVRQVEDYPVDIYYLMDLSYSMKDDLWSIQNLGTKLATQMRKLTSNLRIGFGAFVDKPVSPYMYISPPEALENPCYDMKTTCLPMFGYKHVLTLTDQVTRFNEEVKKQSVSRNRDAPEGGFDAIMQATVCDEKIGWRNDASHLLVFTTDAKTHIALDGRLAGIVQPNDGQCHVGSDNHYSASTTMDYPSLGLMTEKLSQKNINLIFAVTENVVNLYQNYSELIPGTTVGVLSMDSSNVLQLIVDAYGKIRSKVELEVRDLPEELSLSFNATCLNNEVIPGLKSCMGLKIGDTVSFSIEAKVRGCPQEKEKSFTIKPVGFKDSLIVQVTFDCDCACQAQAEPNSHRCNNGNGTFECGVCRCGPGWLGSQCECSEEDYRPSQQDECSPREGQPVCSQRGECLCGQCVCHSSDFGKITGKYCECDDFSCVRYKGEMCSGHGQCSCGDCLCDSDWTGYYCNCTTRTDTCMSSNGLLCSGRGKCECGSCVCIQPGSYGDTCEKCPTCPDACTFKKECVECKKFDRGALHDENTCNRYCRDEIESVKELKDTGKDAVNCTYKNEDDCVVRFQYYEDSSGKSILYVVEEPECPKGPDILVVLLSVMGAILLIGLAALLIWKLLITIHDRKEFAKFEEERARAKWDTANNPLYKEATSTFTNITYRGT
T1 sequence (P06756 31-889 partner limits assumed): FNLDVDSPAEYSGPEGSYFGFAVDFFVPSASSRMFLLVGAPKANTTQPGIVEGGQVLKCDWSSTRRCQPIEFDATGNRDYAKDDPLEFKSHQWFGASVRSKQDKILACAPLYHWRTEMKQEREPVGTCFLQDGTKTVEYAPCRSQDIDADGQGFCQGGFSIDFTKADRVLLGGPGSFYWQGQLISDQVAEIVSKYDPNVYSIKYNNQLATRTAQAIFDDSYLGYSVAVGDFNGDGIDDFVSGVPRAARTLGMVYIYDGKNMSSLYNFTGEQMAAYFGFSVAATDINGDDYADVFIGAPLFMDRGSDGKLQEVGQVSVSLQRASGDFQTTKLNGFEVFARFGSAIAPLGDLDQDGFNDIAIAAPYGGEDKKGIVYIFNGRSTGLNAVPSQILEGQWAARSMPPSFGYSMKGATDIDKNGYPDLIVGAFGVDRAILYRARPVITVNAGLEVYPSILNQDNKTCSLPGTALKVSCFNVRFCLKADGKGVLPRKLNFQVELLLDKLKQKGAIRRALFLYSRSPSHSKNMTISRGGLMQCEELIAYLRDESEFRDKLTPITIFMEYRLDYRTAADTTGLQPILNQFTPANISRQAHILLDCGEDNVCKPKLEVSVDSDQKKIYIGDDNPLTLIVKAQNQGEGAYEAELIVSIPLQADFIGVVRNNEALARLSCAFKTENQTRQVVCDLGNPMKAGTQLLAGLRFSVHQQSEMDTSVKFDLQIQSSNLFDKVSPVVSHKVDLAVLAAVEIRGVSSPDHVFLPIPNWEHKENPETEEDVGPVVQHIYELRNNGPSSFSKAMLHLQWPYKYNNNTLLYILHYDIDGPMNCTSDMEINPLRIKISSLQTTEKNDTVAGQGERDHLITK
T1 sequence (P06756 891-1048 partner limits assumed): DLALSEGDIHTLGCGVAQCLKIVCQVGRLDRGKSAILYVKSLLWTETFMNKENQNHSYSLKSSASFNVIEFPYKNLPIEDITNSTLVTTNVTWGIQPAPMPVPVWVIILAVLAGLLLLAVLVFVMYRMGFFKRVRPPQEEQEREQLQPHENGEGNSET
T1 sequence (Q08722 19-323 partner): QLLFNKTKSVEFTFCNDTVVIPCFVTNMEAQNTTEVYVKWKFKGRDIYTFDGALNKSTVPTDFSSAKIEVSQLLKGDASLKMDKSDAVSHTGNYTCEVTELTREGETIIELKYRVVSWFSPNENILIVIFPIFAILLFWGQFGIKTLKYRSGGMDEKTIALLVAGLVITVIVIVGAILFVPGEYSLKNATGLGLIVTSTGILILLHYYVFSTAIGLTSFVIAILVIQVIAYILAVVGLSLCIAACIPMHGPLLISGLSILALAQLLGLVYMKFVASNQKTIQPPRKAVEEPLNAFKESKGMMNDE

[4] = test system: murine melanoma B16F1 cells; conditions: cells pre-incubated with peptide, injected into C57BL6 syngenic mice; Floquet et al; cited from earlier work
angiogenesis = conditions: Pasco S et al, 2005; cited from earlier work

Question: With “CNYYSNSYSFWLASLNPER (Chemically synthesized NC1 alpha3 (IV) 185-203) [[NC1 α3(IV) 185-203], peptide constituted by amino acids 185 to 203 of the NC1 α3(IV) domain of type IV collagen]” as the sequence, how does the “proliferation of various cancer cell lines” value [1] read?
Answer: Its value is “may inhibit the proliferation”.

Question: What about the “migration of melanoma or fibrosarcoma cells in vitro” value [2] of the same sequence?
Answer: Its value is “inhibit the migration”.

Question: What about the “binding to the αVβ3 integrin-CD47 protein complex on the surface of melanoma cells” value [3] of the same sequence?
Answer: Its value is “binds”.

Question: What about the “tumoral growth of murine melanoma B16F1 cells” value [4] of the same sequence?
Answer: The value was “inhibits the tumoral growth”.

Question: And the “angiogenesis in vitro and in vivo” value (angiogenesis)?
Answer: Its value is “capable of inhibiting angiogenesis”.
